Values of other authors, collected in US20070219271A1, “Pharmaceutical Compositions Containing Pufa And At Least One Of An Immunosuppressive Agent Or An Antineoplastic Agent” (Tillotts Pharma AG, priority 2004, published 2007).

Tested on: human squamous carcinoma line and multidrug-resistant and carboplatin-resistant variants
Conditions: cells pre-treated with GLA

Q: Which results are given for `CCCCC/C=C\C/C=C\C/C=C\CCCCC(=O)O` [GLA, gamma-linoleic acid]?
A: enhancement of vincristine toxicity: up to 40%; enhancement of toxicity of carboplatin (depending on the concentration of GLA, human squamous carcinoma and carboplatin-resistant variant cell lines): > 50%
